Test results from patent US4831046A, “Tetrazole derivatives of 1,3-dioxane and thromboxane A2 antigonizing use thereof” (Imperial Chemical Industries PLC, priority 1985, dated 1989).

Assays:
[1] = biological target: T1, human, citrated platelet-rich plasma (Homo sapiens, UniProt P21731); assay: blood platelet aggregation test (U46619, based on Born); assay type: cell-based; details: test (b), averaged over several concentrations
T1 construct: aggregating human, citrated platelet-rich plasma by addition of the TXA2 mimetic agent U46619; endogenous in cells; host or cells: human platelets in citrated platelet-rich plasma
T1 sequence (P21731 1-343): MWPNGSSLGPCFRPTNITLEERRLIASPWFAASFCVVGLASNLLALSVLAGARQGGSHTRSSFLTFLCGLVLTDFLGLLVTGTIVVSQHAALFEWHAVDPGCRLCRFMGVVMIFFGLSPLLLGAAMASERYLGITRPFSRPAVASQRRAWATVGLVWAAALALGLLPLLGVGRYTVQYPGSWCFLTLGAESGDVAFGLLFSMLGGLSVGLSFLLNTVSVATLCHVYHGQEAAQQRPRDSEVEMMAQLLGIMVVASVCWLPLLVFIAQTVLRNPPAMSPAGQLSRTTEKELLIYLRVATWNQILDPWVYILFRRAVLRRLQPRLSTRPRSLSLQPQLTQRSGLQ
Source text: (§1) As stated earlier, the compounds of formula I are antagonists of one or more of the actions of TXA2, for example certain of its actions on blood platelets, the vasculature and/or the lung.
(b) a blood platelet aggregation test based on that described by Born (Nature, 1962, 194, 927-929) and involving:
(i) aggregating human, citrated platelet-rich plasma by addition of the TXA2 mimetic agent U46619 so that a dose-response curve is generated;
(ii) generating a dose-response curve for U46619 stimulated platelet aggregation in the presence of increasing amounts of test compound (generally in the range, 10^-5 M to 10^-10 M); and
(iii) calculating a KB value indicating potency of TXA2 antagonism for the test compound averaged over several concentrations, from the calculated 50% response value for U46619 aggregation in the presence and absence of test compound; and […]

[2] = system: U46619 induced bronchoconstriction; assay: bronchoconstriction test, U46619 induced, Konzett-Rossler anaesthetised guinea-pig model; assay type: in vivo; details: test (c), 50 μg/kg p.o., 50% response
Source text: as §1
(c) a bronchoconstriction test involving measuring the inhibition by a test compound of the bronchoconstriction induced in the Konzett-Rossler, anaesthetised guinea-pig model (as modified by Collier and James, Brit. J. Pharmacol., 1967, 30, 283-307) by intravenous administration of the TXA2 mimetic agent, U46619 and involving:
(i) obtaining a cumulative dose-response curve to U46619 induced bronchoconstriction by intravenous administration of constant volumes of increasing concentrations of U46619 (0.2-4 μg/kg) in physiological saline solution and expressing bronchoconstriction as the maximum of that theoretically obtainable with no air flow to the test animal;
(ii) generating a cumulative dose-response curve to U46619 induced bronchoconstriction at 30 minute intervals for 3 hours after oral dosing of test compound; and
(iii) calculating a dose-ratio for the test compound (that is the ratio of concentration of U46619 required to cause 50% bronchoconstriction in the presence and absence of test compound) indicating the potency of TXA2 antagonism.

rabbit aortal strip = rabbit aortal strip model (agonist TXA2 or U46619); assay type: cell-based; details: test (a), TXA2 antagonism
Protocol: as §1
(a) The rabbit aortal strip model devised by Piper and Vane (Nature, 1969, 223, 29-35) using as agonist a freshly prepared sample of TXA2, generated by addition of arachidonic acid (25 μg) to citrated, platelet rich rabbit plasma (250 μl) and allowing the mixture to aggregate fully over 90 seconds before use; alternatively the TXA2 mimetic agent known as U46619 (described by R L Jones et alia, in "Chemistry, Biochemistry and Pharmacological Activity of Prostanoids" edited by S M Roberts and F Scheinmann, at page 211, Pergamon Press, 1979) may be used as the agonist;

Kb [1]: 0.0456 µM
SMILES: CC(C)[C@@H]1OC[C@H](C/C=C\CCc2nn[nH]n2)[C@H](c2ccccc2O)O1 (relative stereo) [Example 5, 5-[3(Z)-5-([2,4,5-cis]-4-o-hydroxyphenyl-2-isopropyl-1,3-dioxan-5-yl)pentenyl]-1(H)-tetrazole]
dose ratio [2]: 25
pA2 (rabbit aortal strip): 7.32
